Reference: US20230374038A1, “MODULATORS OF CYSTIC FIBROSIS TRANSMEMBRANE CONDUCTANCE REGULATOR” (VERTEX PHARMACEUTICALS INCORPORATED, priority 2020, published 2023)

These compounds were tested against T1, CFTR (Homo sapiens, UniProt P13569, DEL508-508) (assay: HBE Assay: Ussing chamber assay of CFTR-mediated short-circuit currents in F508del/MF-HBE cells with 1 μM Ivacaftor). Conditions: range of concentrations with 1 μM Ivacaftor, 18-24 hours, 20% human serum.
T1 construct: endogenous in cells; host or cells: primary human bronchial epithelial cells, F508del/MF genotype
T1 sequence (P13569 with tags, fused parts or gaps DEL508-508): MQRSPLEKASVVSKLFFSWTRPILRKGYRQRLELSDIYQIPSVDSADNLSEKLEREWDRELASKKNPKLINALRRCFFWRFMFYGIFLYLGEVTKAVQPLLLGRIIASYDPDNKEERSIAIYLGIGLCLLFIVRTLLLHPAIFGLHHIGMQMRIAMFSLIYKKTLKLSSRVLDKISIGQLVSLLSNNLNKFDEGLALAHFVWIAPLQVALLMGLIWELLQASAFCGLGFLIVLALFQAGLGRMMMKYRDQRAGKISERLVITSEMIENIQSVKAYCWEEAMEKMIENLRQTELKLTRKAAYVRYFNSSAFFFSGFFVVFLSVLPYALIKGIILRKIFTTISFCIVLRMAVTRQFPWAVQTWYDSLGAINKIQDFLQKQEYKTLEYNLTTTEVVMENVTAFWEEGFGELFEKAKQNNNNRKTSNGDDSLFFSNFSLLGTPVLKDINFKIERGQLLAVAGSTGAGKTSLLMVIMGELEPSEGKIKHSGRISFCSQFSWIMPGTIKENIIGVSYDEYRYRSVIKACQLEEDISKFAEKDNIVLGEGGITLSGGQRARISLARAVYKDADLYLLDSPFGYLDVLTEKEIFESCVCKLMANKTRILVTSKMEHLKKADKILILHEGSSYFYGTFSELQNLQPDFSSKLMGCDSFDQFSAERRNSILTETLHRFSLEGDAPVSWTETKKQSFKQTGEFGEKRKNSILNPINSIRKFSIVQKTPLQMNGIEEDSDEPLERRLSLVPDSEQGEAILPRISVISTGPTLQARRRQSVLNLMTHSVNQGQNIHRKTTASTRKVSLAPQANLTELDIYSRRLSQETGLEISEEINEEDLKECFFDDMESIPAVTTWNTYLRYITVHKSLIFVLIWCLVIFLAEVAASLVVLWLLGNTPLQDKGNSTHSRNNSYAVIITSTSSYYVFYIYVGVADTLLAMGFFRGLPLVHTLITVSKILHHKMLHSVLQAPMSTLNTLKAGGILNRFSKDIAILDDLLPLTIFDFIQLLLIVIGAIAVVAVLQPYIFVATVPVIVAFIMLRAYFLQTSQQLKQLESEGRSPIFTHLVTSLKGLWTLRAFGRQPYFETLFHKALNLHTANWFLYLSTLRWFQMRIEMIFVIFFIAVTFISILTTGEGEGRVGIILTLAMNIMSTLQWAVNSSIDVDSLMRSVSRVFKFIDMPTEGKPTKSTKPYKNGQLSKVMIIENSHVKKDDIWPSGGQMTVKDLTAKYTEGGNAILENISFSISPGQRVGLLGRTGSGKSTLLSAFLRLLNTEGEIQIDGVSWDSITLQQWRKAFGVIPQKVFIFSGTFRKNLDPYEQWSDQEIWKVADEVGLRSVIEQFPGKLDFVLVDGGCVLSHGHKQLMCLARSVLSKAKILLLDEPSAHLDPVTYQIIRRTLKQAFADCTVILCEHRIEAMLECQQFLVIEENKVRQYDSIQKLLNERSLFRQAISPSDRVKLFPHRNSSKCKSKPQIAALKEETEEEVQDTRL
Type: cell-based
Experimental: Ussing chamber experiments were performed using human bronchial epithelial (HBE) cells derived from CF subjects heterozygous for F508del and a minimal function CFTR mutation (F508del/MF-HBE) and cultured as previously described (Neuberger T, Burton B, Clark H, Van Goor F Methods Mol Biol 2011:741:39-54). After four days the apical media was removed, and the cells were grown at an air liquid interface for >14 days prior to use.
(§1) To isolate the CFTR-mediated short-circuit (ISC) current, F508del/MF-HBE grown on Costar® Snapwell™ cell culture inserts were mounted in an Ussing chamber and the transepithelial ISC was measured under voltage-clamp recording conditions (Vhold=0 mV) at 37° C. The basolateral solution contained (in mM) 145 NaCl, 0.83 K2HIPO4, 3.3 KH2PO4, 1.2 MgCl2, 1.2 CaCl2), 10 Glucose, 10 HEPES (pH adjusted to 7.4 with NaOH) and the apical solution contained (in mM) 145 NaGluconate, 1.2 MgCl2, 1.2 CaCl2), 10 glucose, 10 HEPES (pH adjusted to 7.4 with NaOH) and 30 μM amiloride to block the epithelial sodium channel. Forskolin (20 μM) was added to the apical surface to activate CFTR, followed by apical addition of a CFTR inhibitor cocktail consisting of BPO, GlyH-101, and CFTR inhibitor 172 (each at 20 μM final assay concentration) to specifically isolate CFTR currents. The CFTR-mediated ISC (μA/cm^2) for each condition was determined from the peak forskolin response to the steady-state current following inhibition.
The activity of the CFTR corrector compounds on the CFTR-mediated ISC was determined in Ussing chamber studies as described above. The F508del/MF-HBE cell cultures were either incubated with the corrector compounds at a range of concentrations in combination with 1 μM Ivacaftor or were incubated with the corrector compounds at a single fixed concentration of 10 μM in combination with 1 μM Ivacaftor for 18-24 hours at 37° C. and in the presence of 20% human serum. The concentration of corrector compounds with 1 μM Ivacaftor during the 18-24 hours incubations was kept constant throughout the Ussing chamber measurement of the CFTR-mediated ISC to ensure compounds were present throughout the entire experiment.
as §1, with “K2HPO4,” for “K2HIPO4,”

SMILES	EC50 [nM]
Cc1cccc(C)c1-c1nc2nc(c1C)OC[C@@H](CC1CC1)N(Cc1ncc(OC(C)C)cn1)C(=O)c1cccc(c1)S(=O)(=O)N2 [Compound 345]	< 1000
Cc1cccc(C)c1-c1nc2nc(c1F)OC[C@@H](CC(C)(C)C)N(Cc1ncc(OC(C)C)cn1)C(=O)c1cccc(c1)S(=O)(=O)N2 [Compound 335]	< 1000
Cc1cccc(C)c1-c1nc2nc(c1F)OC[C@@H](CC(C)(C)C)N(Cc1ncc(OC3CCC3)cn1)C(=O)c1cccc(c1)S(=O)(=O)N2 [Compound 336]	< 1000

Same assay, conditions: single fixed concentration of 10 μM with 1 μM Ivacaftor, 18-24 hours, 20% human serum

SMILES	HBE Activity at 10 μM (%)
Cc1cccc(C)c1-c1nc2nc(c1F)OC[C@@H](CC1CCC1)N(Cc1ncc(OC(C)C)cn1)C(=O)c1cccc(c1)S(=O)(=O)N2 [Compound 354]	+++ (+++ is >60%)
Cc1cccc(CC(C)(C)C)c1-c1nc2nc(c1C)OC[C@@H](CC(C)(C)C)N(Cc1ncc(OC3CCC3)cn1)C(=O)c1cccc(c1)S(=O)(=O)N2 (atropisomer, axis not shown) [Compound 353]	+++ (+++ is >60%)

Same assay, conditions: single fixed concentration of 10 μM, with 1 μM Ivacaftor, 20% human serum

SMILES	HBE Activity at 10 μM
Cc1cccc(C)c1-c1nc2nc(c1C)OC[C@@H](CC(C)(C)C)N(Cc1ncc(N3CCC(C)(C)CC3)cn1)C(=O)c1cccc(c1)S(=O)(=O)N2 [Compound 192]	+++ (+++ is >600%)
Cc1cccc(CC2CCCC2)c1-c1nc2nc(c1C)OC[C@@H](CC(C)(C)C)NC(=O)c1cccc(c1)S(=O)(=O)N2 (atropisomer, axis not shown) [Compound 224]	+++ (+++ is >600%)
Cc1cccc(COC(C)C)c1-c1nc2nc(c1C)OC[C@@H](CC(C)(C)C)N(Cc1nccc(N(C)C(C)C)n1)C(=O)c1cccc(c1)S(=O)(=O)N2 (atropisomer, axis not shown) [Compound 230]	+++ (+++ is >600%)
Cc1cccc(CC2CCCC2)c1-c1nc2nc(c1C)OC[C@@H](CC(C)(C)C)N(Cc1ncc(N3CCC(C)(C)C3)cn1)C(=O)c1cccc(c1)S(=O)(=O)N2 (atropisomer, axis not shown) [Compound 270]	+++ (+++ is >600%)
Cc1cccc(CC2CCCCC2)c1-c1nc2nc(c1C(F)(F)F)OC[C@@H](CC(C)(C)C)N(Cc1ccc(N3CCOCC3)cn1)C(=O)c1cccc(c1)S(=O)(=O)N2 (atropisomer, axis not shown) [Compound 249]	++ (++ is 30-60%)

Same assay, conditions: with 1 μM Ivacaftor, 18-24 hours, 20% human serum

SMILES	EC50 [nM]	HBE Max Activity
Cc1cccc(C(C)C)c1-c1nc2nc(c1C)OC[C@@H](CC(C)(C)C)N(Cc1ncc(N3CCOCC3)cn1)C(=O)c1cccc(c1)S(=O)(=O)N2 (single isomer, unassigned) [Compound 209]	< 1000	+++ (+++ is >600%)
Cc1cccc(CC2CCCCC2)c1-c1nc2nc(c1C)OC[C@@H](CC(C)(C)C)N(Cc1cccc(N(C)C(C)C)n1)C(=O)c1cccc(c1)S(=O)(=O)N2 (atropisomer, axis not shown) [Compound 255]	< 1000	+++ (+++ is >600%)
Cc1cccc(CC2CCCCC2)c1-c1nc2nc(c1C)OC[C@@H](CC(C)(C)C)N(Cc1ccc(N3CCCCC3)cn1)C(=O)c1cccc(c1)S(=O)(=O)N2 (atropisomer, axis not shown) [Compound 308]	< 1000	+++ (+++ is >600%)
Cc1cccc(C)c1-c1nc2nc(c1C)OC[C@@H](C(C)C)N(Cc1cncc(N(C)CC(C)(C)C)n1)C(=O)c1cccc(c1)S(=O)(=O)N2 [Compound 195]	< 1000	+++ (+++ is >600%)
Cc1cccc(CC2CCCCC2)c1-c1nc2nc(c1C)OC[C@@H](CC(C)(C)C)N(Cc1ccc(OC(C)C)cn1)C(=O)c1cccc(c1)S(=O)(=O)N2 (atropisomer, axis not shown) [Compound 279]	1000 to 3000	+++ (+++ is >600%)
Cc1cccc(CC2CCCCC2)c1-c1nc2nc(c1C)OC[C@@H](CC(C)(C)C)N(Cc1ncc(N(C)CC(C)(C)C)cn1)C(=O)c1cccc(c1)S(=O)(=O)N2 (atropisomer, axis not shown) [Compound 282]	1000 to 3000	+++ (+++ is >600%)
Cc1cccc(CC2CCCCC2)c1-c1nc2nc(c1C)OC[C@@H](CC(C)(C)C)N(Cc1nccc(N3CCOCC3)n1)C(=O)c1cccc(c1)S(=O)(=O)N2 (atropisomer, axis not shown) [Compound 263]	< 1000	+++ (+++ is >600%)
COCCN(C)c1cnc(CN2C(=O)c3cccc(c3)S(=O)(=O)Nc3nc(c(C)c(-c4c(C)cccc4CC(C)C)n3)OC[C@H]2CC(C)(C)C)nc1 (atropisomer, axis not shown) [Compound 294]	< 1000	+++ (+++ is >600%)
Cc1cccc(CC(C)C)c1-c1nc2nc(c1C)OC[C@@H](CC(C)(C)C)N(Cc1cncc(N(C)C(C)C)n1)C(=O)c1cccc(c1)S(=O)(=O)N2 (atropisomer, axis not shown) [Compound 238]	< 1000	+++ (+++ is >600%)
Cc1cccc(CC2CCCC2)c1-c1nc2nc(c1C)OC[C@@H](CC(C)(C)C)N(Cc1ncc(N3CCOCC3)cn1)C(=O)c1cccc(c1)S(=O)(=O)N2 (atropisomer, axis not shown) [Compound 281]	< 1000	+++ (+++ is >600%)
Cc1cccc(COC(C)C)c1-c1nc2nc(c1C)OC[C@@H](CC(C)(C)C)N(Cc1ncc(N3CCC(C)(C)C3)cn1)C(=O)c1cccc(c1)S(=O)(=O)N2 (single isomer, unassigned) [Compound 221]	< 1000	+++ (+++ is >600%)
COCCN(C)c1ccc(CN2C(=O)c3cccc(c3)S(=O)(=O)Nc3nc(c(C)c(-c4c(C)cccc4CC(C)C)n3)OC[C@H]2CC(C)(C)C)nc1 (atropisomer, axis not shown) [Compound 292]	< 1000	+++ (+++ is >600%)
Cc1cccc(CC(C)C)c1-c1nc2nc(c1C)OC[C@@H](CC(C)C)N(Cc1cnc(C3CCOCC3)cn1)C(=O)c1cccc(c1)S(=O)(=O)N2 (atropisomer, axis not shown) [Compound 314]	< 1000	+++ (+++ is >600%)
Cc1cccc(CC(C)C)c1-c1nc2nc(c1C)OC[C@@H](CC(C)(C)C)N(Cc1ncc(OC(C)C)cn1)C(=O)c1cccc(c1)S(=O)(=O)N2 (atropisomer, axis not shown) [Compound 233]	< 1000	+++ (+++ is >600%)
COCCN(C)c1cnc(CN2C(=O)c3cccc(c3)S(=O)(=O)Nc3nc(c(C)c(-c4c(C)cccc4CC4CCCCC4)n3)OC[C@H]2CC(C)(C)C)nc1 [Compound 283]	< 1000	+++ (+++ is >600%)
Cc1cccc(CC2CCCCC2)c1-c1nc2nc(c1C)OC[C@@H](CC(C)(C)C)N(Cc1ncccc1N1CCOCC1)C(=O)c1cccc(c1)S(=O)(=O)N2 (atropisomer, axis not shown) [Compound 310]	< 1000	+++ (+++ is >600%)

Same assay, conditions: with 1 μM Ivacaftor, 18-24 hours, 20% human serum, compared to known Vertex corrector with 18 μM Tezacaftor and 1 μM Ivacaftor, read-out: HBE Max activity (%)

SMILES	Emax [%]
Cc1cccc(C)c1-c1nc2nc(c1C)OC[C@@H](CC1CC1)N(Cc1ncc(OC(C)C)cn1)C(=O)c1cccc(c1)S(=O)(=O)N2 [Compound 345]	> 60
Cc1cccc(C)c1-c1nc2nc(c1F)OC[C@@H](CC(C)(C)C)N(Cc1ncc(OC(C)C)cn1)C(=O)c1cccc(c1)S(=O)(=O)N2 [Compound 335]	> 60
Cc1cccc(C)c1-c1nc2nc(c1F)OC[C@@H](CC(C)(C)C)N(Cc1ncc(OC3CCC3)cn1)C(=O)c1cccc(c1)S(=O)(=O)N2 [Compound 336]	> 60
